Measurements: patent publication US20240343733A1, “COMPOUNDS FOR TARGETING DEGRADATION OF IRAK4 PROTEINS” (BIOGEN MA INC., priority 2021, published 2024)

Molecular target: T1, IRAK4 (Homo sapiens, UniProt Q9NWZ3)
T1 construct: 293Tcells expressing HiBiT-tagged IRAK4 were then added into 384-well plates
T1 sequence (Q9NWZ3 1-460): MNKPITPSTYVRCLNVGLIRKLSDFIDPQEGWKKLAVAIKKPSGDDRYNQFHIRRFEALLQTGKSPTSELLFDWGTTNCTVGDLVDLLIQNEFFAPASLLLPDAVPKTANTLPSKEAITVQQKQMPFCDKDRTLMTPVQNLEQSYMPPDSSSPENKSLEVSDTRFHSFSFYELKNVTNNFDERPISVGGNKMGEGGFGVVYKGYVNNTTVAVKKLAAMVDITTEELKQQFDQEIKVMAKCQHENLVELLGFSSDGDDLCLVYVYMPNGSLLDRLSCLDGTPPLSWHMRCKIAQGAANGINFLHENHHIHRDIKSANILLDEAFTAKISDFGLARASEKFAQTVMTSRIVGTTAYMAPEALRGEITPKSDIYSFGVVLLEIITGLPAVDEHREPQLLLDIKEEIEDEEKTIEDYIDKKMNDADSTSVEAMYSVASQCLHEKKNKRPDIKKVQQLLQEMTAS
Assay: IRAK4 Degradation Assay, HiBiT Method
Type: cell-based
Conditions: 293T cells expressing HiBiT-tagged IRAK4, 6 hours
Method in brief: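 Luminescent read-out with Nano-Glo HiBiT lytic reagent after 6 h compound exposure at 37 °C. Cells were HiBiT-IRAK4 knock-in 293T (C-terminal tag), 10,000 per well. Compounds ran as 11-point half-log dilutions from […] highest dose, duplicate wells; DMSO served as negative control.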

| Compound | DC50 [nM] |
| --- | --- |
| CC(C)Oc1cc2nc(C3CCN(C(=O)CN4CCC(c5cc(F)c(C6CCC(=O)NC6=O)cc5F)CC4)CC3)cn2cc1C(=O)Nc1cccc(C(F)F)n1 (stereo not shown) [Example 76, N-[6-(difluoromethyl)-2-pyridyl]-2-[1-[2-[4-[4-(2,6-dioxo-3-piperidyl)-2,5-difluoro-phenyl]-1-piperidyl]acetyl]-4-piperidyl]-7-isopropoxy-imidazo[1,2-a]pyridine-6-carboxamide] | 10 to 100 |
| CC(C)Oc1cc2nc(C3CCN(C(=O)CN4CCC(c5cc(F)c(C6CCC(=O)NC6=O)cc5F)CC4)CC3)cn2cc1C(=O)Nc1cnn2cccnc12 (stereo not shown) [Example 77, 2-[1-[2-[4-[4-(2,6-dioxo-3-piperidyl)-2,5-difluoro-phenyl]-1-piperidyl]acetyl]-4-piperidyl]-7-isopropoxy-N-pyrazolo[1,5-a]pyrimidin-3-yl-imidazo[1,2-a]pyridine-6-carboxamide] | 10 to 100 |
| CC(C)Oc1cc2nc(C3CCN(C(=O)CN4CCC(c5ccc6c(C7CCC(=O)NC7=O)nn(C)c6c5)C(F)(F)C4)CC3)cn2cc1C(=O)Nc1cccc(C(F)F)n1 (stereo not shown) [Example 78, N-[6-(difluoromethyl)-2-pyridyl]-2-[1-[2-[4-[3-(2,6-dioxo-3-piperidyl)-1-methyl-indazol-6-yl]-3,3-difluoro-1-piperidyl]acetyl]-4-piperidyl]-7-isopropoxy-imidazo[1,2-a]pyridine-6-carboxamide] | 10 to 100 |
| CC(C)Oc1cc2nc(C3CCN(C(=O)CC4(O)CCN(c5ccc6c(C7CCC(=O)NC7=O)nn(C)c6c5)CC4)CC3)cn2cc1C(=O)Nc1cccc(C(F)F)n1 (stereo not shown) [Example 79, N-[6-(difluoromethyl)-2-pyridyl]-2-[1-[2-[1-[3-(2,6-dioxo-3-piperidyl)-1-methyl-indazol-6-yl]-4-hydroxy-4-piperidyl]acetyl]-4-piperidyl]-7-isopropoxy-imidazo[1,2-a]pyridine-6-carboxamide] | 10 to 100 |
| CC(C)Oc1cc2nc(C3CCN(C(=O)CN4CCC(c5ccc(C6CCC(=O)NC6=O)cc5F)CC4)CC3)cn2cc1C(=O)Nc1cccc(C(F)F)n1 (stereo not shown) [Example 80, N-[6-(difluoromethyl)-2-pyridyl]-2-[1-[2-[4-[4-(2,6-dioxo-3-piperidyl)-2-fluoro-phenyl]-1-piperidyl]acetyl]-4-piperidyl]-7-isopropoxy-imidazo[1,2-a]pyridine-6-carboxamide] | 10 to 100 |
| CC(C)Oc1cc2nc(C3CCN(C(=O)CC4(O)CCN(c5c(F)cc(N[C@H]6CCC(=O)NC6=O)cc5Cl)CC4)CC3)cn2cc1C(=O)Nc1cccc(C(F)F)n1 [Example 82, 2-[1-[2-[1-[2-chloro-4-[[(3S)-2,6-dioxo-3-piperidyl]amino]-6-fluoro-phenyl]-4-hydroxy-4-piperidyl]acetyl]-4-piperidyl]-N-[6-(difluoromethyl)-2-pyridyl]-7-isopropoxy-imidazo[1,2-a]pyridine-6-carboxamide] | 10 to 100 |
| CC(C)Oc1cc2nc(C3CCN(C(=O)CN4CCC(n5ccc(NC6CCC(=O)NC6=O)n5)CC4)CC3)cn2cc1C(=O)Nc1cccc(C(F)F)n1 (stereo not shown) [Example 83, N-[6-(difluoromethyl)-2-pyridyl]-2-[1-[2-[4-[3-[(2,6-dioxo-3-piperidyl)amino]pyrazol-1-yl]-1-piperidyl]acetyl]-4-piperidyl]-7-isopropoxy-imidazo[1,2-a]pyridine-6-carboxamide] | 10 to 100 |
| CC(C)Oc1cc2nc(C3CCN(C(=O)CN4CCC(c5ccc(NC6CCC(=O)NC6=O)cn5)CC4)CC3)cn2cc1C(=O)Nc1cccc(C(F)F)n1 (stereo not shown) [Example 84, N-[6-(difluoromethyl)-2-pyridyl]-2-[1-[2-[4-[5-[(2,6-dioxo-3-piperidyl)amino]-2-pyridyl]-1-piperidyl]acetyl]-4-piperidyl]-7-isopropoxy-imidazo[1,2-a]pyridine-6-carboxamide] | 10 to 100 |
| CC(C)Oc1cc2nc(C3CCN(C(=O)CN4CCC(c5cnc(NC6CCC(=O)NC6=O)nc5)CC4)CC3)cn2cc1C(=O)Nc1cccc(C(F)F)n1 (stereo not shown) [Example 85, N-[6-(difluoromethyl)-2-pyridyl]-2-[1-[2-[4-[2-[(2,6-dioxo-3-piperidyl)amino]pyrimidin-5-yl]-1-piperidyl]acetyl]-4-piperidyl]-7-isopropoxy-imidazo[1,2-a]pyridine-6-carboxamide] | 10 to 100 |
| CC(C)Oc1cc2nc(C3CCN(C(=O)CN4CCC(c5ccc(NC6CCC(=O)NC6=O)nc5)CC4)CC3)cn2cc1C(=O)Nc1cccc(C(F)F)n1 (stereo not shown) [Example 86, N-[6-(difluoromethyl)-2-pyridyl]-2-[1-[2-[4-[6-[(2,6-dioxo-3-piperidyl)amino]-3-pyridyl]-1-piperidyl]acetyl]-4-piperidyl]-7-isopropoxy-imidazo[1,2-a]pyridine-6-carboxamide] | 10 to 100 |
| CC(C)Oc1cc2nc(C3CCN(C(=O)CN4CCC(c5ccc(C6(F)CCC(=O)NC6=O)cc5)CC4)CC3)cn2cc1C(=O)Nc1cccc(C(F)F)n1 (stereo not shown) [Example 88, N-[6-(difluoromethyl)-2-pyridyl]-2-[1-[2-[4-[4-(3-fluoro-2,6-dioxo-3-piperidyl)phenyl]-1-piperidyl]acetyl]-4-piperidyl]-7-isopropoxy-imidazo[1,2-a]pyridine-6-carboxamide] | 10 to 100 |
| CC(C)Oc1cc2nc(C3CCN(C(=O)CN4CCC(c5ccc(C6(F)CCC(=O)NC6=O)cc5)CC4)CC3)cn2cc1C(=O)Nc1cnn2cccnc12 (stereo not shown) [Example 89, 2-[1-[2-[4-[4-(3-fluoro-2,6-dioxo-3-piperidyl)phenyl]-1-piperidyl]acetyl]-4-piperidyl]-7-isopropoxy-N-pyrazolo[1,5-a]pyrimidin-3-yl-imidazo[1,2-a]pyridine-6-carboxamide] | < 10 |
| CC(C)Oc1cc2nc(C3CCN(C(=O)CC4CC5(C4)CN(c4ccc(C6CCC(=O)NC6=O)cc4)C5)CC3)cn2cc1C(=O)Nc1cccc(C(F)F)n1 (stereo not shown) [Example 90, N-[6-(difluoromethyl)-2-pyridyl]-2-[1-[2-[2-[4-(2,6-dioxo-3-piperidyl)phenyl]-2-azaspiro[3.3]heptan-6-yl]acetyl]-4-piperidyl]-7-isopropoxy-imidazo[1,2-a]pyridine-6-carboxamide] | 10 to 100 |
| CC(C)Oc1cc2nc(C3CCN(C(=O)CC4CCN(c5ccc6c([C@H]7CCC(=O)NC7=O)nn(C)c6c5)CC4)CC3)cn2cc1C(=O)Nc1cccc(C(F)F)n1 [Example 91, (R)—N-(6-(difluoromethyl)pyridin-2-yl)-2-(1-(2-(1-(3-(2,6-dioxopiperidin-3-yl)-1-methyl-1H-indazol-6-yl)piperidin-4-yl)acetyl)piperidin-4-yl)-7-isopropoxyimidazo[1,2-a]pyridine-6-carboxamide] | 10 to 100 |
| CC(C)Oc1cc2nc(C3CCN(C(=O)CC4CCN(c5ccc6c([C@@H]7CCC(=O)NC7=O)nn(C)c6c5)CC4)CC3)cn2cc1C(=O)Nc1cccc(C(F)F)n1 [Example 92, (S)—N-(6-(difluoromethyl)pyridin-2-yl)-2-(1-(2-(1-(3-(2,6-dioxopiperidin-3-yl)-1-methyl-1H-indazol-6-yl)piperidin-4-yl)acetyl)piperidin-4-yl)-7-isopropoxyimidazo[1,2-a]pyridine-6-carboxamide] | 10 to 100 |
| CC(C)Oc1cc2nc(C3CCN(CC(=O)N4CCC(c5ccc(NC6CCC(=O)NC6=O)cc5)CC4)CC3)cn2cc1C(=O)Nc1ccccc1 (stereo not shown) [Example 93, 2-[1-[2-[4-[4-[(2,6-dioxo-3-piperidyl)amino]phenyl]-1-piperidyl]-2-oxo-ethyl]-4-piperidyl]-7-isopropoxy-N-phenyl-imidazo[1,2-a]pyridine-6-carboxamide] | 100 to 500 |
